According to patent US6592867B2, “Antimicrobial composition containing an oxidoreductase and an enhancer of the N-hydroxyanilide-type” (Novozymes A/S, priority 1998, dated 2003):

Tests used:
Type in all cases: cell-based
[1] = system: Pseudomonas fluorescens; test: Bactericidal activity of phenol oxidizing enzyme plus enhancing agent, surviving cells enumerated by Malthus (Examples 1 and 3); conditions: for Bactericidal activity (reduction in living cell number) / Bactericidal activity: 20 min, 40° C.; for Cell reduction: enhancing agent 0.2 mM, hydrogen peroxide 0.5 mM, rCiP 3 POXU/ml, total kill
Experimental: (§1) Antimicrobial activity was evaluated in 0.05 M MES-buffer (Sigma M8250) (pH 6) or 0.05 HEPES-buffer (Sigma H3375) (pH 8); buffers were sterilised by filter sterilisation. The antimicrobial activity was determined against Pseudomonas fluorescens (Gram et al. 1990, International Journal of Food Microbiology 10: 303-316) and Staphylococcus epidermidis (DSM 20042). Cells were grown in Tryptone Soya Broth (Oxoid CM129) at 30° C. (S. epidermidis) or 25° C. (P. fluorescens) for 24 h and diluted in the MES-buffer to a final cell concentration of approximately 10^6 cfu/ml. The cell suspensions were mixed with rCiP (3 POXU/ml), enhancing agent (0.2 mM) and hydrogen peroxide (0.5 mM) for 20 min at 40° C. The bactericidal activity was determined by incubation in Malthus. Detection times measured by the Malthus instrument were converted to cfu/ml by a calibration curve. Either direct or Indirect Malthus measurements were used when enumerating total survival cells (Malthus Flexi M2060, Malthus Instrument Limited). By the direct measurements, the cell metabolism was determined by conductance measurements in the growth substrate. By the indirect measurements, 3 ml of growth medium was transferred to the outer chamber of the indirect Malthus cells, and 0.5 ml of sterile KOH (0.1 M) was transferred to the inner chamber. The cell suspensions were after enzyme treatment transferred to the outer chamber of the Malthus cell. As cells are growing in the outer chamber they produce CO2 which will dissolve in the KOH in the inner chamber and thereby change the conductance of the KOH. The amount of CO2 formed by the respiring cells surviving the enzyme treatment was used for estimating the number of viable cells. When the conductance change is measurable by the Malthus, a detection time (dt) will be recorded. The dt's were converted to colony counts by use of a calibration curve relating cfu/ml to dt (Johansen et al. 1995. Journal of Applied Bacteriology 78:297-303, Johansen et al. 1997, Applied and Environmental Microbiology 63:3724-3728). Antibacterial activity of Coprinus cinereus peroxidase (rCiP), Polyporus pinsitus laccase (rPpL), Coprinus cinereus laccase (rCcL) and Rhizoctonia solani laccase (rRsL) (as described in WO 95/07988) was determined with different enhancing agents at pH 6 and 8 (buffers; see Example 1). The rCiP was combined with 0.5 mM hydrogen peroxide. Antimicrobial activity of rCiP and rPpL was determined against Pseudomonas fluorescens (Gram et al. 1990, International Journal of Food Microbiology 10:303-316), whereas antimicrobial activity of rCcL and rRsL was determined against Pseudomonas aeruginosa (ATCC 10145). The bactericidal activity was determined as described in example 1. The results are shown as the reduction in living cell number. Thus, a reduction of 4 correspond to a 4 log reduction of living cells e.g. from 10^6 CFU/ml to 10^2 CFU/ml.

[2] = system: Pseudomonas aeruginosa (ATCC 10145); test: Bactericidal activity of laccase plus enhancing agent, surviving cells enumerated by Malthus (Examples 2 and 3)
Experimental: as §1, with “The antimicrobial” for “Antimicrobial activity was evaluated in 0.05 M MES-buffer (Sigma M8250) (pH 6) or 0.05 HEPES-buffer (Sigma H3375) (pH 8); buffers were sterilised by filter sterilisation. The antimicrobial”, “activity of Polyporus pinsitus laccase (rPpL), obtained as described in WO 96/00290), and Coprinus cinereus laccase (rCcL), obtained as described in WO 97/08325, was determined with N-hydroxyacetanilide as enhancing agent against Pseudomonas aeruginosa (ATCC 10145), Enterobacter aerogenes (ATCC 13048) and Enterococcus faecalis (DSM 2570). The bactericidal activity was determined as described in Example 1, the antimicrobial activity of rPpL (1 mg/L) was evaluated at pH 6, whereas rCcL (1 mg/L) was evaluated at pH 8. Antibacterial activity of Coprinus cinereus” for “activity of Coprinus cinereus”

[3] = system: Enterobacter aerogenes (ATCC 13048); test: Bactericidal activity of laccase plus N-hydroxyacetanilide, Malthus (Example 2); conditions: for Bactericidal activity (dose-response): 20 min, 40° C.
Experimental: (§2) The antimicrobial activity was determined against Pseudomonas fluorescens (Gram et al. 1990, International Journal of Food Microbiology 10: 303-316) and Staphylococcus epidermidis (DSM 20042). Cells were grown in Tryptone Soya Broth (Oxoid CM129) at 30° C. (S. epidermidis) or 25° C. (P. fluorescens) for 24 h and diluted in the MES-buffer to a final cell concentration of approximately 10^6 cfu/ml. The cell suspensions were mixed with rCiP (3 POXU/ml), enhancing agent (0.2 mM) and hydrogen peroxide (0.5 mM) for 20 min at 40° C. The bactericidal activity was determined by incubation in Malthus. Detection times measured by the Malthus instrument were converted to cfu/ml by a calibration curve. Either direct or Indirect Malthus measurements were used when enumerating total survival cells (Malthus Flexi M2060, Malthus Instrument Limited). By the direct measurements, the cell metabolism was determined by conductance measurements in the growth substrate. By the indirect measurements, 3 ml of growth medium was transferred to the outer chamber of the indirect Malthus cells, and 0.5 ml of sterile KOH (0.1 M) was transferred to the inner chamber. The cell suspensions were after enzyme treatment transferred to the outer chamber of the Malthus cell. As cells are growing in the outer chamber they produce CO2 which will dissolve in the KOH in the inner chamber and thereby change the conductance of the KOH. The amount of CO2 formed by the respiring cells surviving the enzyme treatment was used for estimating the number of viable cells. When the conductance change is measurable by the Malthus, a detection time (dt) will be recorded. The dt's were converted to colony counts by use of a calibration curve relating cfu/ml to dt (Johansen et al. 1995. Journal of Applied Bacteriology 78:297-303, Johansen et al. 1997, Applied and Environmental Microbiology 63:3724-3728). Antibacterial activity of Polyporus pinsitus laccase (rPpL), obtained as described in WO 96/00290), and Coprinus cinereus laccase (rCcL), obtained as described in WO 97/08325, was determined with N-hydroxyacetanilide as enhancing agent against Pseudomonas aeruginosa (ATCC 10145), Enterobacter aerogenes (ATCC 13048) and Enterococcus faecalis (DSM 2570). The bactericidal activity was determined as described in Example 1, the antimicrobial activity of rPpL (1 mg/L) was evaluated at pH 6, whereas rCcL (1 mg/L) was evaluated at pH 8.

[4] = system: Enterococcus faecalis (DSM 2570); test: as above; conditions: 20 min, 40° C.
Experimental: as §2

[5] = rCiP = 3 POXU/ml + 0.5 mM hydrogen peroxide, pH 6
[6] = rCiP = 3 POXU/ml + 0.5 mM hydrogen peroxide, pH 8
[7] = rCcL = 5 mg/L, pH 6, 20 min, 40° C.
[8] = rCcL = 5 mg/L, pH 8, 20 min, 40° C.
[9] = rRsL = 5 mg/L, pH 6, 20 min, 40° C.
[10] = rRsL = 5 mg/L, pH 8, 20 min, 40° C.
[11] = rPpL 1 mg/L, pH 6, high concentration of N-hydroxyacetanilide

## CC(=O)c1ccc(N(O)C(C)=O)cc1 [N1-(4-acetylphenyl)-N1-hydroxyacetamide]
[1]; [5]
  Bactericidal activity (reduction in living cell number): 1.2 log CFU/ml

## CC(=O)N(O)c1ccc(C#N)cc1 [N1-(4-cyanophenyl)-N1-hydroxyacetamide]
[1]; rPpL = 5 mg/L, pH 6
  Bactericidal activity (reduction in living cell number): 1.7 log CFU/ml

## CC(=O)N(O)c1ccc(O)cc1 [N1-(4-hydroxyphenyl)-N1-hydroxyacetamide]
[1]; [5]
  Bactericidal activity (reduction in living cell number): 3.7 log CFU/ml
[1]; [6]
  Bactericidal activity (reduction in living cell number): 1.1 log CFU/ml

## CC(=O)N(O)c1cccc([N+](=O)[O-])c1 [N1-hydroxy-N1-(3-nitrophenyl)acetamide]
[1]; [5]
  Bactericidal activity (reduction in living cell number): 1.5 log CFU/ml
[1]; [6]
  Bactericidal activity (reduction in living cell number): 1.1 log CFU/ml
[1]; rPpL = 5 mg/L, pH 6
  Bactericidal activity (reduction in living cell number): 1.6 log CFU/ml

## CC(=O)N(O)c1ccc([N+](=O)[O-])cc1 [N1-hydroxy-N1-(4-nitrophenyl)acetamide]
[1]; [5]
  Bactericidal activity (reduction in living cell number): 4.2 log CFU/ml
[1]; [6]
  Bactericidal activity (reduction in living cell number): 1.2 log CFU/ml
[1]; rPpL = 5 mg/L, pH 6
  Bactericidal activity (reduction in living cell number): 6.7 log CFU/ml
[1]; rPpL = 5 mg/L, pH 8
  Bactericidal activity (reduction in living cell number): 1.7 log CFU/ml

## N#Cc1ccc(C(=O)N(O)c2ccccc2)cc1 [N1-hydroxy-N1-phenyl-4-cyanobenzamide]
[1]; [5]
  Bactericidal activity (reduction in living cell number): 6.1 log CFU/ml
[1]; [6]
  Bactericidal activity (reduction in living cell number): 2.1 log CFU/ml
[1]; rPpL = 5 mg/L, pH 6
  Bactericidal activity (reduction in living cell number): 2.5 log CFU/ml
[2]; [7]
  Bactericidal activity (reduction in living cell number): 3.5 log CFU/ml
[2]; [8]
  Bactericidal activity (reduction in living cell number): 6.5 log CFU/ml
[2]; [9]
  Bactericidal activity (reduction in living cell number): 3.5 log CFU/ml
[2]; [10]
  Bactericidal activity (reduction in living cell number): 6.5 log CFU/ml

## COc1ccc(C(=O)N(O)c2ccccc2)cc1 [N1-hydroxy-N1-phenyl-4-methoxybenzamide]
[1]; [5]
  Bactericidal activity (reduction in living cell number): 4.1 log CFU/ml
[1]; rPpL = 5 mg/L, pH 8
  Bactericidal activity (reduction in living cell number): 4.8 log CFU/ml
[2]; [7]
  Bactericidal activity (reduction in living cell number): 5.9 log CFU/ml
[2]; [8]
  Bactericidal activity (reduction in living cell number): 6.3 log CFU/ml
[2]; [9]
  Bactericidal activity (reduction in living cell number): 3.8 log CFU/ml
[2]; [10]
  Bactericidal activity (reduction in living cell number): 4.6 log CFU/ml

## O=C(c1ccc([N+](=O)[O-])cc1)N(O)c1ccccc1 [N1-hydroxy-N1-phenyl-4-nitrobenzamide]
[1]; [6]
  Bactericidal activity (reduction in living cell number): 1.4 log CFU/ml

## CC(=O)N(O)c1ccccc1 [N-hydroxyacetanilide]
[1]; combined system: enhancing agent 0.2 mM, hydrogen peroxide 0.5 mM and rCiP 3 POXU/ml
  Bactericidal activity: total kill
[1]; pH 6
  Cell reduction: approximately 10^6 CFU/ml
[1]; pH 8
  Cell reduction: approximately 10^6 CFU/ml
[1]; enhancing agent (0.2 mM) combined with hydrogen peroxide (0.5 mM), no enzyme
  Bactericidal activity: No bactericidal activity
[1]; enhancing agent alone (0.2 mM), no enzyme, no hydrogen peroxide
  Bactericidal activity: No bactericidal activity
[2]; combined with laccase (rPpL or rCcL, 1 mg/L), 20 min, 40° C.
  Enhancing agent concentration at which bactericidal activity was obtained: above 200 μM
[2]; rCcL 1 mg/L, pH 8, 20 min, 40° C.
  Bactericidal activity (dose-response): significant bactericidal activity
[2]; rPpL 1 mg/L, pH 6, 20 min, 40° C.
  Bactericidal activity (dose-response): significant bactericidal activity
[2]; [11]
  Bactericidal activity at high concentration of enhancing agent: total kill
[3]; rCcL 1 mg/L, pH 8
  Bactericidal activity (dose-response): significant bactericidal activity
[3]; rPpL 1 mg/L, pH 6
  Bactericidal activity (dose-response): significant bactericidal activity
[3]; [11]
  Bactericidal activity at high concentration of enhancing agent: total kill
[4]; rCcL 1 mg/L, pH 8
  Bactericidal activity (dose-response): significant bactericidal activity
[4]; rPpL 1 mg/L, pH 6
  Bactericidal activity (dose-response): significant bactericidal activity
